The text below walks through data of patent US9029345B2, “Selective inhibitors of translesion DNA replication” (Case Western Reserve University, priority 2005, dated 2015).

For one data set, the system named is control Sf9 membranes. In words: ATPase activity of control Sf9 membranes. Format: biochemical. As for the experimental part: (§1) The in vitro activity of the triphosphate of 5-CHInd (5-CHITP) against P-gp was evaluated through its ability to inhibit vinblastine-stimulated ATP hydrolysis. These experiments used purified P-gp membranes expressed and isolated in Sf9 insect cells (BD Biosciences). ATP hydrolysis was quantified by the amount of ^32Pi release from γ^32P-ATP as a function of time. Reactions containing vinblastine were initiated by the addition of membranes and quenched in trichloroacetic acid and ammonium heptamolybdate. Heptamolybdophosphoric acid was separated by organic phase extraction and the presence of ^32Pi was quantified by liquid scintillation counting. […] The inhibition of 5-CHITP is selective for P-gp as the ATPase activity of control Sf9 membranes is not inhibited whereas sodium orthovanadate inhibits by about 50%.

Data set [1] deals with T1, P-gp (Homo sapiens, UniProt P08183). Description: vinblastine-stimulated ATP hydrolysis by purified P-gp membranes (32Pi release). Format: biochemical. On the set-up: endogenous in cells. How it is done: as §1
T1 sequence (P08183 whole entry): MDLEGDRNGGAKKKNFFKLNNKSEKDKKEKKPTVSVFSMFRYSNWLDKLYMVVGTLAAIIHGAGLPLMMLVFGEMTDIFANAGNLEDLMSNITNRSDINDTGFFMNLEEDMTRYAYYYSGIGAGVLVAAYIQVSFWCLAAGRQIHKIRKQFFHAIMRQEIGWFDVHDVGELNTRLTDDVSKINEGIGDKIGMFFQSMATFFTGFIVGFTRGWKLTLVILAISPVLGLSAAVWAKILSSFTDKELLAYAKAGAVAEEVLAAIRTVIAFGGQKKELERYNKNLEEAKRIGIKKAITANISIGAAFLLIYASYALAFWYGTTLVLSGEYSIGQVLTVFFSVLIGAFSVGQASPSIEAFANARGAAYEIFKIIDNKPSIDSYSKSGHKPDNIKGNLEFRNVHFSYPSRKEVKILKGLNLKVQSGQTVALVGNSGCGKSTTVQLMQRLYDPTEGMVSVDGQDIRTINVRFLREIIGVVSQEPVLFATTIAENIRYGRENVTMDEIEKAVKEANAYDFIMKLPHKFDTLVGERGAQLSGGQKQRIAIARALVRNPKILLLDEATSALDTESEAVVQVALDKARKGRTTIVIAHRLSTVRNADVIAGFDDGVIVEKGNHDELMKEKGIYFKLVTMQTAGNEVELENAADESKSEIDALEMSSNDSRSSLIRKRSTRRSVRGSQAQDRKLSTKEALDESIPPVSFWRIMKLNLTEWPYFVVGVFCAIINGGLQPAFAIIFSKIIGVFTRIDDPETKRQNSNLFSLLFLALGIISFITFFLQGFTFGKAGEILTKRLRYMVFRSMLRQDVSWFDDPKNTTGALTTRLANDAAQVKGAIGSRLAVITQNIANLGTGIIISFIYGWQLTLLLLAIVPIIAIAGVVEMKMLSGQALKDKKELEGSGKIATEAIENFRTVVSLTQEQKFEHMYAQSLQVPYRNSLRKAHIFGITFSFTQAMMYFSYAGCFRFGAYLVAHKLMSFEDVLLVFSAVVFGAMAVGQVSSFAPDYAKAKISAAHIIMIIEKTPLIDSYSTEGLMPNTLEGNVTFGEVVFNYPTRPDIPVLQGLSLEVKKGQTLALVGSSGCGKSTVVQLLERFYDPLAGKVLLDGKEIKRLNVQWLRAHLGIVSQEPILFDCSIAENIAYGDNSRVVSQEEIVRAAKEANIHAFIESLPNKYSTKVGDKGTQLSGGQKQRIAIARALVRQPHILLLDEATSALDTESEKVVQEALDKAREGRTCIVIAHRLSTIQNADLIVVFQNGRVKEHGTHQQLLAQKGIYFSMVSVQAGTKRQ
Data set [2] addresses T2, P-glycoprotein (Homo sapiens, UniProt P08183).
T2 construct: endogenous in cells; host or cells: CEM/VBL (CEM-VBL) leukemia cells
Description: export of Hoechst dye from CEM/VBL cells overexpressing P-gp. Format: cell-based. The conditions noted are these: sub-lethal concentration, compared to untreated CEM/VBL. From the text:
(§2) This was first determined using the NIMH Psychoactive Drug Screening Program (PDSP) which performs pharmacological and functional screens of novel compounds. This initial screening effort lead us to test the ability of 5-CHInd to block the export of Hoechst dye, a known substrate for P-gp. Control experiments verify that CEM cells not overexpressing p-glycoprotein show accumulation of the Hoechst dye as indicated by nuclear staining (FIG. 3A).

In data set [3] the target is T2, P-glycoprotein. Description: NIMH Psychoactive Drug Screening Program (PDSP) screen. The conditions noted are these: first determined using PDSP.
Excerpt: as §2

The next data set relates to SKOV3 cells. Description: potentiation of vinblastine in SKOV3 cells. Format: cell-based. Conditions: 25 or 50 μg/ml 5-CHInd with 0.5 or 1 μg/ml vinblastine. How it is done:
(§3) The potentiation of vinblstine by 5-CHInd was also assessed in MDR negative cesll (SKOV3) and MDR positive SKOV/VBL cells by administering various concentrations of vinblastine and 5-CHInd to the cells. FIG. 6 is a graph illustrating the cytoxic effect of 25 μg/ml of 5-CHInd (CH25), 50 μg/ml of 5-CHInd (CH50), 0.5 μg/ml of vinblastine (VinB 0.5), 1 μg/ml of vinblastine (VinB 1), 25 μg/ml of 5-CHInd in combination with 0.5 μg/ml of vinblastine (CH25+VinB 0.5), 25 μg/ml of 5-CHInd in combination with 1 μg/ml of vinblastine (CH25+VinB 1), 50 μg/ml of 5-CHInd in combination with 0.5 μg/ml of vinblastine (CH50+VinB 0.5), and 50 μg/ml of 5-CHInd in combination with 1 μg/ml of vinblastine (CH50+VinB 1) administered respectively to SKOV3 and SKOV/VBL cells.

The next data set deals with SKOV/VBL cells. Description: potentiation of vinblastine in SKOV/VBL cells. The conditions noted are these: 25 or 50 μg/ml 5-CHInd with 0.5 or 1 μg/ml vinblastine. Format: cell-based. As for the experimental part: as §3
The next data set deals with CEM-C7 cells. In words: intracellular [3H]-vinblastine accumulation and efflux in CEM-C7 cells. Format: cell-based. The conditions noted are these: devoid of P-gp.
For a further data set, the system named is CDKs. In words: flow cytometry, cell cycle. Format: cell-based. Conditions: preliminary flow cytometry data. For orientation: Flow cytometry measures light scatter and fluorescence of single cells or particles in a stream.
The target in data set [4] is T1, P-gp.
Data set [5] addresses T1, P-gp. In words: intracellular [3H]-vinblastine accumulation and efflux in CEM-VBL cells. On the set-up: endogenous in cells. The class given is cell-based. How it is done: Intracellular drug accumulation studies use confluent CEM-C7 and CEM-VBL cells incubated with [^3H]-vinblastine (Moravek Biochemicals, Brea, Calif.) in the absence or presence of 5-CHInd. After attainment of equilibrium, cells are harvested and washed to remove any unbound [^3H]-vinblastine. Washed cells are then solubized and the retained radioactivity is quantified by liquid scintillation techniques. Measured radioactivity is normalized for protein content, and drug accumulation is expressed as a percentage of the vehicle control.
To measure the effect of 5-CHInd on the efflux of [^3H]-vinblastine, CEM-VBL cells are incubated with a sub-lethal dose of 5-CHInd or vehicle (DMSO) followed by the addition of a fixed concentration of [^3H]-vinblastine. After attainment of equilibrium, cells are washed and aliquots are analyzed for [^3H]-vinblastine accumulation at variable times (5 to 120 minutes). The efflux rate constant is obtained from a fit of the data to y=Ae^−kt where y is the amount of radioactivity at time t, A is maximal amplitude in accumulation, k is the efflux rate constant, and t is time.

Data set [6] addresses T1, P-gp. In words: control experiments: potentiation of other chemotherapeutic agents. Conditions: does not inhibit P-gp.

T2 sequence (P08183 whole entry): as above

For the molecule `O=P(O)(O)OP(=O)(O)OP(=O)(O)OC[C@H]1O[C@@H](n2ccc3cc(C4CCCCC4)ccc32)C[C@@H]1O` [5-CHITP], in the data set with control Sf9 membranes (5-CHITP), the “inhibition of ATPase activity of control Sf9 membranes” value is “not inhibited”. Also, the “inhibition of ATPase activity of P-gp” value on P-gp [1] (50 μM) turned out to be 52%.

As for `OC[C@H]1OC(n2ccc3cc(C4CCCCC4)ccc32)C[C@@H]1O` (some centres unmarked) [5-CHInd, 5-cylclohexyl-1-indolyl-2-deoxyriboside], the “accumulation of Hoechst dye (inhibition of P-gp export)” value at P-glycoprotein [2] is reported as “enhanced accumulation of the Hoechst dye”. Besides, the “inhibition of p-glycoprotein activity” value against P-glycoprotein [3] is “can inhibit the activity of p-glycoprotein”. Also, the “potentiation of vinblastine (FIG. 6)” value in the data set with SKOV3 cells was “potentiation of vinblastine”. The “potentiation of vinblastine (FIG. 6)” value in the data set with SKOV/VBL cells was “potentiation of vinblastine”. Moreover, in the data set with CEM-C7 cells, the “effect on accumulation or efflux of [3H]-vinblastine” value is on record as “no effect”. Also, the cell cycle arrest result in the data set with CDKs was “induces cell cycle arrest”. Moreover, in the data set with leukemia cell lines, the LD50 result is recorded as “about 20 μg/mL”. The “cytotoxic effect (flow cytometry, FIG. 2)” value in the data set with leukemia cell lines (leukemia cells, closely mimics staurosporine) is listed as “rapid cytotoxic effect”. Also, at P-gp [4], the “potentiation of the effects of 5-fluorouracil” value is recorded as “does not potentiate”, the “potentiation of the effects of cisplatin” value is “does not potentiate”, the “potentiation of the effects of doxorobucin” value is recorded as “potentiates” and the “potentiation of the effects of paclitaxel” value is reported as “potentiates”. On P-gp [5], the “accumulation of [3H]-vinblastine” value is reported as “significant accumulation”. The “rate constant for drug efflux” value on P-gp [5] (compared to vehicle-treated cells) is given as “decrease in rate constant for drug efflux”.

Turning to `OC[C@H]1OC(n2ccc3cc(-c4ccccc4)ccc32)C[C@@H]1O` (some centres unmarked) [5-PhInd], in the data set with leukemia cell lines (at the concentrations tested, data not shown), the cell death result is given as “cause cell death”.

With `[Na+].[Na+].[Na+].[O]=[V]([O-])([O-])[O-]` [sodium orthovanadate, reference compound], the “inhibition of ATPase activity of control Sf9 membranes” value in the data set with control Sf9 membranes (sodium orthovanadate) was “about 50%”. Further, the “inhibition of ATPase activity of P-gp” value against P-gp [1] (1 μM, compared with 52% by 50 μM 5-CHITP) was “comparable”.

In the case of `CN[C@@H]1C[C@H]2O[C@@](C)([C@@H]1OC)n1c3ccccc3c3c4c(c5c6ccccc6n2c5c31)C(=O)NC4` [staurosporine], the “action as potentiating agent” value on P-gp [6] was “does not act as a potentiating agent”.
